Experimental data from PMC8956739, “A synthetic lipopeptide targeting top-priority multidrug-resistant Gram-negative pathogens” (Nature Communications, 2022).
≈ marks a conversion by molar mass, not a printed value. Where “and” joins values, the source holds several entries; their conditions need not be identical. Equal entries are not always repeated. Residues, ends and D or L forms follow the SMILES beside them.

How the values were obtained:
human subjects = conditions: in vivo; cited from earlier work
[1] = system: P. aeruginosa FADDI-PA038; assay type: cell-based, Pseudomonas aeruginosa; conditions: FADDI-PA038
Outline: (§1)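 MICs came from broth microdilution in cation-adjusted Mueller–Hinton broth against clinical isolates. For surfactant binding, P. aeruginosa ATCC 27853 was additionally tested with 10% Survanta® (v/v, 2.5 mg/mL phospholipids) added to the polymyxin-containing broth.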

P. aeruginosa ATCC 27853 [2] = assay type: cell-based, Pseudomonas aeruginosa; conditions: ATCC 27853
Outline: (§2)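 MICs were determined by broth microdilution in cation-adjusted Mueller–Hinton broth (CaMHB), with clinical isolates tested alongside ATCC strains.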

[3] = system: P. aeruginosa FADDI-PA025; assay type: cell-based, Pseudomonas aeruginosa; conditions: FADDI-PA025
Outline: as §1

P. aeruginosa ATCC 27853 [4] = assay: Neutropenic mouse bloodstream infection model; assay type: in vivo; conditions: single IV dose 4 mg/kg; for Log10 CFU/mL blood at 4 h, Mean / Δlog10 CFU/mL blood (mean) / Log10 CFU/mL blood at 4 h, single mouse: 4 h; for Δlog10 CFU/mL blood (mean): treated minus control, mean of replicates; for Δlog10 CFU/mL blood (mean) / Log10 CFU/mL blood at 4 h, single mouse / Delta Log10 CFU/mL blood at 4 h, single mouse: 4 mg/kg; for Delta Log10 CFU/mL blood at 4 h, single mouse: treated mouse minus mean of vehicle mice
Outline: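 Female Swiss mice made neutropenic with cyclophosphamide (150 mg/kg day −4, 100 mg/kg day −1), infected IV with 50 µL of 4 × 10^8 CFU/mL. Lipopeptide 4 mg/kg (free base) IV at 2 h post-inoculation, n = 3. Efficacy = Δlog10 CFU/mL blood versus saline at 4 h post-dose.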

A. baumannii ATCC 19606 = assay type: cell-based, Acinetobacter baumannii; conditions: ATCC 19606
Outline: as §2

A. baumannii FADDI-AB034 = assay type: cell-based, Acinetobacter baumannii; conditions: FADDI-AB034
Outline: as §1

A. baumannii FADDI-AB030 = assay type: cell-based, Acinetobacter baumannii; conditions: FADDI-AB030
Outline: as §1

[5] = system: K. pneumoniae FADDI-KP032; assay type: cell-based, Klebsiella pneumoniae; conditions: FADDI-KP032
Outline: as §1

[6] = system: K. pneumoniae FADDI-KP065; assay type: cell-based, Klebsiella pneumoniae; conditions: FADDI-KP065
Outline: as §1

[7] = Acute toxicity in mice (maximum tolerated dose, IV bolus); assay type: in vivo, mouse; conditions: mouse, in vivo, iv, single IV bolus dose, replicates 1-4; read-out: MTD, single replicate
Protocol: (§3) Lipopeptide solutions were prepared in 0.9% saline and stored at 4 °C before use. Swiss mice (female, 7-week-old, 22–28 g) were used in the study. A mouse was administered an intravenous bolus of the lipopeptide (mg/kg free base) through a lateral tail vein (≤0.1 mL). After the injection, the mouse was released back into the cage and monitored for clinical signs of toxicity from 0 to 24 h after injection as follows: every 10 min in the first 2 h, every half hour from 2 to 4 h, every hour from 4 to 12 h, and every 2 h from 12 to 24 h.

Swiss mice = assay: as above; assay type: in vivo, mouse; conditions: replicates 1-4
Protocol: as §3

Swiss mice, kidney = assay: Nephrotoxicity in mice (kidney histopathology); assay type: in vivo, mouse; conditions: for Kidney histopathology (SQS Score): 72 mg/kg/d subcutaneously in six divided doses every 2 h, n = 3; for Kidney histopathology, mice with the SQS score: mouse, in vivo
Outline: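 Female Swiss mice (7-week-old, 22–28 g) received lipopeptides in saline either s.c. at 12 mg/kg ×6 every 2 h (total 72 mg/kg, n = 3) or i.p. at 20 or 25 mg/kg ×6 every 2 h (total 120 mg/kg, n = 6; 150 mg/kg, n = 3). Right kidney collected 20 h after last dose, fixed in 10% buffered formalin (pH 7.4), histology scored blinded.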

Compound	single dose at which neurotoxicity was observed (human subjects)	MIC P. aeruginosa FADDI-PA038 [1]	MIC P. aeruginosa ATCC 27853 (P. aeruginosa ATCC 27853 [2])	MIC, No Survanta (P. aeruginosa ATCC 27853 [2])	MIC P. aeruginosa FADDI-PA025 [3]	Log10 CFU/mL blood at 4 h, Mean (P. aeruginosa ATCC 27853 [4])	Δlog10 CFU/mL blood (mean) (P. aeruginosa ATCC 27853 [4])	Log10 CFU/mL blood at 4 h, single mouse (P. aeruginosa ATCC 27853 [4])	Delta Log10 CFU/mL blood at 4 h, single mouse (P. aeruginosa ATCC 27853 [4])	MIC A. baumannii ATCC 19606 (A. baumannii ATCC 19606)	MIC A. baumannii FADDI-AB034 (A. baumannii FADDI-AB034)	MIC A. baumannii FADDI-AB030 (A. baumannii FADDI-AB030)	MIC K. pneumoniae FADDI-KP032 [5]	MIC K. pneumoniae FADDI-KP065 [6]	MTD [7]	MTD, single replicate (Swiss mice)	Kidney histopathology (SQS Score) (Swiss mice, kidney)	Kidney histopathology, mice with the SQS score (Swiss mice, kidney)
SPR206	exceeding 200 mg																	
CC[C@@H]1NC(=O)[C@@H](CC(C)C)NC(=O)[C@H](CCN)NC(=O)[C@@H](NC(=O)[C@H](CN)NC(=O)[C@@H](NC(=O)[C@H](CCN)NC(=O)c2cc(Cl)cc(Cl)c2)[C@@H](C)O)CCNC(=O)[C@H]([C@@H](C)O)NC(=O)[C@H](CCN)NC(=O)[C@H](CCN)NC1=O [Lipopeptide F381] (HELM PEPTIDE1{[O=C(c1cc(Cl)cc(Cl)c1)[*:2]].[Dab].T.[NC[C@H](N[*:1])C(=O)[*:2]].[Dab].[Dab].[dL].[Abu].[Dab].[Dab].T}$PEPTIDE1,PEPTIDE1,5:R3-11:R2$$$V2.0)		1 µg/mL (≈ 0.862 µM)	0.25 µg/mL (≈ 0.215 µM)	0.5 µg/mL (≈ 0.431 µM)	0.5 µg/mL (≈ 0.431 µM)	4.49 Log10 CFU/mL blood	−3.45 log10 CFU/mL blood	4.47 Log10 CFU/mL blood and 4.87 Log10 CFU/mL blood and 4.12 Log10 CFU/mL blood	-3.47 Log10 CFU/mL blood and -3.07 Log10 CFU/mL blood and -3.82 Log10 CFU/mL blood	0.5 µg/mL (≈ 0.431 µM)	0.25 µg/mL (≈ 0.215 µM)	0.25 µg/mL (≈ 0.215 µM)	<0.125 µg/mL	0.5 µg/mL (≈ 0.431 µM)	5 mg/kg	4.7 mg/kg and 4 mg/kg	+1 (SQS + 1 = mild damage (overall score, 1 to <15))	1/3
CC[C@@H]1NC(=O)[C@@H](CC(C)C)NC(=O)[C@H](CCN)NC(=O)[C@@H](NC(=O)[C@H](CN)NC(=O)[C@@H](NC(=O)[C@H](CCN)NC(=O)c2ccc(-c3ccccc3)cc2)[C@@H](C)O)CCNC(=O)[C@H]([C@@H](C)O)NC(=O)[C@H](CCN)NC(=O)[C@H](CCN)NC1=O [Lipopeptide F477] (HELM PEPTIDE1{[O=C(c1ccc(-c2ccccc2)cc1)[*:2]].[Dab].T.[NC[C@H](N[*:1])C(=O)[*:2]].[Dab].[Dab].[dL].[Abu].[Dab].[Dab].T}$PEPTIDE1,PEPTIDE1,5:R3-11:R2$$$V2.0)		1 µg/mL (≈ 0.857 µM)	1 µg/mL (≈ 0.857 µM)	1 µg/mL (≈ 0.857 µM)	1 µg/mL (≈ 0.857 µM)	3.39 Log10 CFU/mL blood	−3.89 log10 CFU/mL blood	3.09 Log10 CFU/mL blood and 3.94 Log10 CFU/mL blood and 3.15 Log10 CFU/mL blood	-4.19 Log10 CFU/mL blood and -3.34 Log10 CFU/mL blood and -4.13 Log10 CFU/mL blood	1 µg/mL (≈ 0.857 µM)	0.25 µg/mL (≈ 0.214 µM)	0.5 µg/mL (≈ 0.428 µM)	0.25 µg/mL (≈ 0.214 µM)	0.25 µg/mL (≈ 0.214 µM)	10 mg/kg	10.1 mg/kg and 11.1 mg/kg	+1 (SQS + 1 = mild damage (overall score, 1 to <15))	1/3
